The target of assay [1] is T1, human recombinant histamine H1 receptor (Homo sapiens, UniProt P35367).
T1 construct: expressed in transfected cells; host or cells: CHO cells
As to the kind of experiment: Histamine H1 radioligand binding ([3H]Pyrilamine). To be noted: 1 μM; read-out: Binding data (Percentage Inhibition) Histamine Binding (1 μM) H1. The procedure, abridged:
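Binding to the human recombinant histamine H1 receptor, expressed in CHO cells, was measured in a modified Tris-HCl buffer (50 mM Tris-HCl, pH 7.4, 2 mM MgCl2, 100 mM NaCl, 250 mM Sucrose). Compounds were incubated with 1.2 nM [3H]Pyrilamine for 180 minutes at 25° C, with 1 μM pyrilamine defining non-specific binding. After filtration and washing, filter counts gave percent inhibition of specific binding.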

Assay [2] concerns the target T2, human recombinant histamine H2 receptor (Homo sapiens, UniProt P25021).
T2 construct: expressed in transfected cells; host or cells: CHO-K1 cells
As to the kind of experiment: Histamine H2 radioligand binding ([125I]Aminopotentidine). Particulars: 1 μM; inhibition of specific [125I]Aminopotentidine binding; read-out: Binding data (Percentage Inhibition) Histamine Binding (1 μM) H2. In outline: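 Membranes of CHO-K1 cells expressing human H2 receptor incubated with 0.1 nM [125I]aminopotentidine, 120 min, 25 °C, 50 mM phosphate pH 7.4; nonspecific binding defined with 3 μM tiotidine.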

Assay [3] deals with T3, human recombinant adrenergic α2B receptor (Homo sapiens, UniProt P18089).
T3 construct: expressed in transfected cells; host or cells: CHO-K1 cells
T3 sequence (P18089 1-450): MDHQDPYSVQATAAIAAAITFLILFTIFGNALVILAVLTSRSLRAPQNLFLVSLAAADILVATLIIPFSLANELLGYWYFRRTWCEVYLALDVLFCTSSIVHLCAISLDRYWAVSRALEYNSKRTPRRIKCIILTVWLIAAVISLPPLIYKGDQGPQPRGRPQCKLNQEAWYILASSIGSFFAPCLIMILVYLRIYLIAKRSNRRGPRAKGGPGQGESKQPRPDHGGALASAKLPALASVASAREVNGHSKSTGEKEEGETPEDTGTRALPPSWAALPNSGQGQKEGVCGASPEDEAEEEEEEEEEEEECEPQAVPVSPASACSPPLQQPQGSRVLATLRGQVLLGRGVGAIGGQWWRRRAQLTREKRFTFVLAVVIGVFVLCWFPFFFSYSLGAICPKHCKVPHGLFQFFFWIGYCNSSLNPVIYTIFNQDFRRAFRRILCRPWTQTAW
As to the kind of experiment: Adrenergic α2B radioligand binding ([3H]Rauwolscine). To be noted: 1 h; read-out: Percent Inhibition of ligand binding Adrenergic (1 μM ligand conc.) α2B. The procedure, abridged: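 Human α2B receptor expressed in CHO-K1 cells, in 50 mM Tris-HCl pH 7.4, 12.5 mM MgCl2, 1 mM EDTA, 0.2% BSA. Binding of 2.5 nM [3H]Rauwolscine, 60 min at 25° C, filtration; non-specific defined with 10 μM prazosin.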

For assay [4], the target named is T4, human recombinant serotonin (5-Hydroxytryptamine) 5-HT2A receptor (Homo sapiens, UniProt P28223).
T4 construct: expressed in transfected cells; host or cells: CHO-K1 cells
T4 sequence (P28223 whole entry): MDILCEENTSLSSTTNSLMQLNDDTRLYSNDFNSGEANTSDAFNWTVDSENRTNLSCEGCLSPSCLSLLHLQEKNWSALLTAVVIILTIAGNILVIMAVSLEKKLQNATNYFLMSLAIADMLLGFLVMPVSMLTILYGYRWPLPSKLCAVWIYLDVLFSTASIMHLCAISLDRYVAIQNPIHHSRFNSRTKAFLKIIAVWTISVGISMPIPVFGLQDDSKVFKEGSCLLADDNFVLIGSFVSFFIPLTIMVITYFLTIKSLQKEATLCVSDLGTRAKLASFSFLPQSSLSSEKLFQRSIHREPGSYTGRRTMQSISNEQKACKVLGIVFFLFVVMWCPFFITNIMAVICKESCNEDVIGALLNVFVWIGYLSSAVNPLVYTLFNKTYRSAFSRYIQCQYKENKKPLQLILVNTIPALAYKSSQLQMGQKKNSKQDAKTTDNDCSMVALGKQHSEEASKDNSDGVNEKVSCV
The assay is described as follows: Serotonin 5-HT2A radioligand binding ([3H]Ketanserin). Particulars: 1 h; read-out: Percent Inhibition of ligand binding Serotonin (1 μM ligand concentration) 5-HT2A. The procedure, abridged:
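Membranes from CHO-K1 cells expressing the receptor, in 50 mM Tris-HCl pH 7.4, incubated 60 min at 25° C with 0.5 nM [3H]Ketanserin; 1 μM Mianserin defines non-specific binding. Filtration and counting; values are % inhibition of specific binding at 1 μM or lower, 1% DMSO.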

The target in assay [5] is T5, human recombinant serotonin (5-Hydroxytryptamine) 5-HT6 receptor (Homo sapiens, UniProt P50406).
T5 construct: expressed in transfected cells; host or cells: human HeLa cells
T5 sequence (P50406 whole entry): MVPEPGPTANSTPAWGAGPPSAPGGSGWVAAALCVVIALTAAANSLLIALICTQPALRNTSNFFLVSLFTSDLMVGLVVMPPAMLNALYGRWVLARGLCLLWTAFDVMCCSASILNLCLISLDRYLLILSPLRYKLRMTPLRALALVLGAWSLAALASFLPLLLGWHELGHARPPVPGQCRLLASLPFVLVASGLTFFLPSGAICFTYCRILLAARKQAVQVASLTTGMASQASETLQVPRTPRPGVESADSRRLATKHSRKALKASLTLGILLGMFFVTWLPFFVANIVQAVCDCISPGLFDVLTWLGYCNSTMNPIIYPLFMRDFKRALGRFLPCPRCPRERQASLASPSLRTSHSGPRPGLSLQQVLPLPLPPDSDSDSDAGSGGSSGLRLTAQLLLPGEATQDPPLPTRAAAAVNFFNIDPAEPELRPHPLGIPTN
The assay is described as follows: Serotonin 5-HT6 radioligand binding ([3H]LSD). Particulars: 2 h; read-out: Percent Inhibition of ligand binding Serotonin (1 μM ligand concentration) 5-HT6. The procedure, abridged: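 Human 5-HT6 receptor expressed in HeLa cells, in Tris-HCl pH 7.4 with 150 mM NaCl, ascorbic acid and BSA. Compounds at 1 μM or lower (1% DMSO) incubated 120 min at 37° C with 1.5 nM [3H]LSD. Non-specific binding defined with serotonin; filter counting gives % inhibition of specific binding.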

Molecules are shown by their SMILES.

T2 sequence (P25021 whole entry): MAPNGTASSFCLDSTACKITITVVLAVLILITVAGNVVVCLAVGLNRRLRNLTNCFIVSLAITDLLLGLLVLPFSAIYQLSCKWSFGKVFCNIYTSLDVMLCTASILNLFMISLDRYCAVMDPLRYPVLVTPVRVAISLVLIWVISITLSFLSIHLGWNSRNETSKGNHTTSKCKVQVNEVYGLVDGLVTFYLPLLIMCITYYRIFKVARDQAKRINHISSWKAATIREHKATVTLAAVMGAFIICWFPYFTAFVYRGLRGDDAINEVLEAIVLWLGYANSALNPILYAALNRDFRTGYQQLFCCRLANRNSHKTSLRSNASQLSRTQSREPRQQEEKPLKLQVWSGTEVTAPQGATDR
T1 sequence (P35367 whole entry): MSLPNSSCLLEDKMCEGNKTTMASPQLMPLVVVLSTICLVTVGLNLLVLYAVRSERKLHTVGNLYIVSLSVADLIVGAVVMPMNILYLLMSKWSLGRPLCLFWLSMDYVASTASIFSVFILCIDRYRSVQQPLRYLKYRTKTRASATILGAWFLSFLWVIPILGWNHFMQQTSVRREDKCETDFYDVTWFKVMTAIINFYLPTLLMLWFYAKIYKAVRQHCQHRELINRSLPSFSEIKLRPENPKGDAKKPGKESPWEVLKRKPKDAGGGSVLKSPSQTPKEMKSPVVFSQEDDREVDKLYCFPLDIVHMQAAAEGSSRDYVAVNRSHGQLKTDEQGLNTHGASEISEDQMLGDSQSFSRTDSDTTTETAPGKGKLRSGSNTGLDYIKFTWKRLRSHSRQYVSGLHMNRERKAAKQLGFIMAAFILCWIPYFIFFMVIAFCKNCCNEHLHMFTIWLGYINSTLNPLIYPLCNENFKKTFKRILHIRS

On to `C/C(=C\n1c2c(c3cc(C)ccc31)CCN(C)C2c1ccccc1)c1ccc(Cl)cc1` (stereo not shown) [Compound 164, 9-(2-(4-chlorophenyl)prop-1-enyl)-2,6-dimethyl-1-phenyl-2,3,4,9-tetrahydro-1H-pyrido[3,4-b]indole], for which the inhibition at 1 µM in assay [1] was 12%; in assay [2], 25%; in assay [3] it was 15%; in assay [4], 95%; in assay [5], 16%.
`Cc1ccc2c(c1)c1c(n2CC(O)c2ccccc2F)CN(C)CC1` (stereo not shown) [Compound 60, 2-(2,6-dimethyl-3,4-dihydro-1H-pyrido[3,4-b]indol-9(2H)-yl)-1-(2-fluorophenyl)ethanol]: the inhibition at 1 µM in assay [1] is 19%; in assay [2], 15%; in assay [3] it was -5%; in assay [4], 74%; in assay [5] it was 62%.

Values taken from US9260429B2, “Pyrido[3,4-B]indoles and methods of use” (Medivation Technologies, Inc., priority 2008, dated 2016).
